Data taken from paper PMC6008465 (British Journal of Cancer, 2018).
Marks after values point to notes of the source that are not given here.

System: advanced solid tumours
Experiment: Part A tumour response (RECIST 1.0)
Format: in vivo, human
Protocol: The primary objectives of this phase 1 study were to evaluate the safety, tolerability, and MTD of once-weekly (Schedule I) and twice-weekly (Schedule II) dosing. […] Toxicity was managed by dose interruption, reduction, and/or discontinuation. Only Cycle 1 adverse events (AEs) were evaluable as DLTs. […] All ongoing patients could continue at 320 mg/m^2, regardless of initial starting dose.
Efficacy was assessed by tumour response determined by investigator review of computed tomography/magnetic resonance imaging scans using Response Evaluation Criteria in Solid tumours version 1.0 (RECIST).[17]

SMILES: CCNc1cc(O)c2c(c1)/C=C/C[C@H](O)[C@H](O)C(=O)/C=C\[C@@H](C)[C@H](C)OC2=O [E6201, (3S,4R,5Z,8S,9S,11E)-14-(ethylamino)-8,9,16-trihydroxy-3,4-dimethyl-3,4,9,19-tetrahydro-1H-2-benzoxacyclotetradecine-1,7 (8H)-dione]
- Best overall response: Complete response (CR) (20 mg/m^2 (n=4)): 0 n (%)
- Best overall response: Not evaluable (NE) (20 mg/m^2 (n=4)): 0 n (%)
- Best overall response: Partial response (PR) (20 mg/m^2 (n=4)): 0 n (%)
- Best overall response: Progressive disease (PD) (20 mg/m^2 (n=4)): 3 (75.0) n (%)
- Disease control rate (CR+PR+SD) (20 mg/m^2 (n=4)): 1 (25.0) n (%)
- Overall response rate (CR+PR) (20 mg/m^2 (n=4)): 0 n (%)
- Best overall response: Complete response (CR) (40 mg/m^2 (n=3)): 0 n (%)
- Best overall response: Not evaluable (NE) (40 mg/m^2 (n=3)): 0 n (%)
- Best overall response: Partial response (PR) (40 mg/m^2 (n=3)): 0 n (%)
- Best overall response: Progressive disease (PD) (40 mg/m^2 (n=3)): 1 (33.3) n (%)
- Disease control rate (CR+PR+SD) (40 mg/m^2 (n=3)): 2 (66.7) n (%)
- Overall response rate (CR+PR) (40 mg/m^2 (n=3)): 0 n (%)
- Duration of SD (40 mg/m^2, patient with biliary duct cancer (BRAF-WT)): 4 cycles
- Duration of SD (40 mg/m^2, patient with colon cancer (BRAF-WT)): 6 cycles
- Best overall response: Complete response (CR) (80 mg/m^2 (n=3)): 0 n (%)
- Best overall response: Not evaluable (NE) (80 mg/m^2 (n=3)): 0 n (%)
- Best overall response: Partial response (PR) (80 mg/m^2 (n=3)): 0 n (%)
- Best overall response: Progressive disease (PD) (80 mg/m^2 (n=3)): 2 (66.7) n (%)
- Disease control rate (CR+PR+SD) (80 mg/m^2 (n=3)): 1 (33.3) n (%)
- Overall response rate (CR+PR) (80 mg/m^2 (n=3)): 0 n (%)
- Duration of SD (80 mg/m^2, patient with BRAF-WT uveal melanoma): 15 cycles
- Best overall response: Complete response (CR) (160 mg/m^2 (n=3)): 0 n (%)
- Best overall response: Not evaluable (NE) (160 mg/m^2 (n=3)): 1 (33.3) n (%)
- Best overall response: Partial response (PR) (160 mg/m^2 (n=3)): 0 n (%)
- Best overall response: Progressive disease (PD) (160 mg/m^2 (n=3)): 2 (66.7) n (%)
- Disease control rate (CR+PR+SD) (160 mg/m^2 (n=3)): 0 n (%)
- Overall response rate (CR+PR) (160 mg/m^2 (n=3)): 0 n (%)
- Best overall response: Complete response (CR) (320 mg/m^2 (n=7)): 0 n (%)
- Best overall response: Not evaluable (NE) (320 mg/m^2 (n=7)): 1 (14.3) n (%)
- Best overall response: Partial response (PR) (320 mg/m^2 (n=7)): 0 n (%)
- Best overall response: Progressive disease (PD) (320 mg/m^2 (n=7)): 4 (57.1) n (%)
- Disease control rate (CR+PR+SD) (320 mg/m^2 (n=7)): 1 (14.3) n (%)
- Overall response rate (CR+PR) (320 mg/m^2 (n=7)): 0 n (%)
- Best overall response: Complete response (CR) (400 mg/m^2 (n=1)): 0 n (%)
- Best overall response: Not evaluable (NE) (400 mg/m^2 (n=1)): 0 n (%)
- Best overall response: Partial response (PR) (400 mg/m^2 (n=1)): 0 n (%)
- Best overall response: Progressive disease (PD) (400 mg/m^2 (n=1)): 0 n (%)
- Disease control rate (CR+PR+SD) (400 mg/m^2 (n=1)): 1 (100) n (%)
- Overall response rate (CR+PR) (400 mg/m^2 (n=1)): 0 n (%)
- Duration of SD (400 mg/m^2, patient with gastric carcinoid (BRAF status unknown)): 4 cycles
- Best overall response: Complete response (CR) (480 mg/m^2 (n=4)): 0 n (%)
- Best overall response: Not evaluable (NE) (480 mg/m^2 (n=4)): 0 n (%)
- Best overall response: Partial response (PR) (480 mg/m^2 (n=4)): 1 (25.0)^a n (%)
- Best overall response: Progressive disease (PD) (480 mg/m^2 (n=4)): 0 n (%)
- Disease control rate (CR+PR+SD) (480 mg/m^2 (n=4)): 3 (75.0) n (%)
- Overall response rate (CR+PR) (480 mg/m^2 (n=4)): 1 (25.0) n (%)
- Duration of SD (480 mg/m^2, patient with papillary thyroid cancer (BRAF-WT)): 4 cycles
- Duration of partial response (BRAF-mutated papillary thyroid cancer patient, 480 mg/m^2): 4 cycles
- Best overall response: Complete response (CR) (Total (N=25)): 0 n (%)
- Best overall response: Not evaluable (NE) (Total (N=25)): 2 (8.0) n (%)
- Best overall response: Partial response (PR) (Total (N=25)): 1 (4.0) n (%)
- Best overall response: Progressive disease (PD) (Total (N=25)): 12 (48.0) n (%)
- Disease control rate (CR+PR+SD) (Total (N=25)): 9 (36.0) n (%)
- Overall response rate (CR+PR) (Total (N=25)): 1 (4.0) n (%)
